Data on one compound can be found in article PMC13077603, “Fluorine‐18‐Labeled Nucleotide Analogs Targeting Ecto‐5'‐Nucleotidase (CD73) for Positron Emission Tomography Imaging of Solid Tumors” (Angewandte Chemie (International Ed. in English), 2026).

Data set [1] addresses T1, Mouse membrane‐bound CD73 (membrane preparation of 4T1.2 breast cancer cell line) (Mus musculus, UniProt Q61503).
T1 construct: endogenous in cells; host or cells: 4T1.2 mouse breast cancer cell line, membrane preparation (as named in the result head)
T1 sequence (Q61503 29-576): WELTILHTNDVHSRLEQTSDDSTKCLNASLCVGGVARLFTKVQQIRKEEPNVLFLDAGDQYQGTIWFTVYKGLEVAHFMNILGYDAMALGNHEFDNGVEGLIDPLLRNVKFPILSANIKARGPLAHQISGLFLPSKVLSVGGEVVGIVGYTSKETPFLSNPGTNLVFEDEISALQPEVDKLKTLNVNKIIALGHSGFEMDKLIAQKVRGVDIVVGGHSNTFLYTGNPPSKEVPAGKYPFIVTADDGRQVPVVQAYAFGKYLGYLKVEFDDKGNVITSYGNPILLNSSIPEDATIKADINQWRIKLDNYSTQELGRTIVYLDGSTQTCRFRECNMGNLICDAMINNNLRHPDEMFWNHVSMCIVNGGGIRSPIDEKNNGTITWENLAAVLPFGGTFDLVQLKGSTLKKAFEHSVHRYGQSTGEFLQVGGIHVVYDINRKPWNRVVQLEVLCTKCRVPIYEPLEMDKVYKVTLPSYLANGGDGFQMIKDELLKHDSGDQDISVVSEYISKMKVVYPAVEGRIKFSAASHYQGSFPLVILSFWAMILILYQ
As to the kind of experiment: CD73 enzyme inhibition assay, mouse membrane-bound CD73. Format: biochemical. The note with it: membrane preparation of mouse 4T1.2 breast cancer cell line, Km 67.6 µM, substrate AMP (5 µM). On the procedure: Both compounds were evaluated for metabolic stability in mouse liver microsomes (MLM) and plasma protein binding (PPB) (Table 1).
The CD73 enzyme inhibition assay of recombinant soluble CD73, membrane-bound human CD73, soluble rat CD73 and mouse CD73 was performed as previously described.^[16,35^]

Data set [2] addresses Human serum albumin (HSA) (Homo sapiens, UniProt P02768). The data set is described as follows: Plasma protein binding (human serum albumin binding). It is filed as in vitro ADME. The note with it: human serum albumin, read-out: Plasma protein binding (PPB) (converted). The protocol:
Human serum albumin (HSA) binding.
Plasma protein binding was determined following previously published procedure.^[38^]

The target in data set [3] is T2, CD73/AMPase activity in human breast tumor tissues (Homo sapiens, UniProt P21589).
T2 construct: cryosections of breast tumor samples as well as sentinel lymph node samples were investigated; from tissue; host or cells: primary breast tumors and sentinel lymph nodes of two patients, 6 µm cryosections
T2 sequence (P21589 27-574): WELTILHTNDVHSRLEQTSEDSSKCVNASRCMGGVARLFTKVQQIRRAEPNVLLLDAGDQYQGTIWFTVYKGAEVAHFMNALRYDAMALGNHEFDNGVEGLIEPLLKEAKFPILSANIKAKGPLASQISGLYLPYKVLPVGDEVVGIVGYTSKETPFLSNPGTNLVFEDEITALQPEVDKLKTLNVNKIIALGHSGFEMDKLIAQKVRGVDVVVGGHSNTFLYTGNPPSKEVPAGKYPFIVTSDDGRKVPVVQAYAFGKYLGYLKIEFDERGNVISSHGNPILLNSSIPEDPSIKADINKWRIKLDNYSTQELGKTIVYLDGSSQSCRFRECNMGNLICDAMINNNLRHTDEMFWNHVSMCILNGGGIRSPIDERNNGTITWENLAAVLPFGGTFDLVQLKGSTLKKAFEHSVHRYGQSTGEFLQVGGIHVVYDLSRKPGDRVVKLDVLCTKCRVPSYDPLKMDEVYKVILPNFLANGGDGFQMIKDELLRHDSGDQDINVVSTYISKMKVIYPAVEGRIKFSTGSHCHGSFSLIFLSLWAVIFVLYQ
The data set is described as follows: In situ enzyme histochemistry of AMPase activity in breast tumor cryosections. It is filed as biochemical. The settings on record: 10–50 nM inhibitor, 400 µM AMP, tissue cryosections. On the procedure:
Subsequent analysis of CD73‐mediated AMPase activities was performed by incubating tissue cryosections with AMP and CD73 inhibitors at different concentrations. Figure 2 depicts representative images of AMP‐specific staining in breast tumors from patient X (panel A) and patient Y (panel B), determined in the absence (control) and in the presence of 10 nM of the potent CD73 inhibitor 1.
FIGURE 3 Effects of CD73 inhibitors on AMPase activity in human breast tumor tissues. The effects of CD73 inhibitors on AMPase activity was determined in situ by incubating primary breast tumor samples from patient X (A) and patient Y (B) with 400 µM AMP and 1.5 mM Pb(NO3)2 in the absence (control) and the presence of the indicated concentrations of CD73 inhibitor. (C). Mean pixel intensities of brown staining due to the hydrolysis of AMP leading to Pb3(PO4)2 precipitation were quantified in the selected regions and expressed as arbitrary units (AU) (mean ± SEM; n = 2). Scale bars: 2 mm (A, B), and 500 µm (A, right insets).
For the localization of AMPase activities in human tumors, the lead nitrate-based enzyme histochemistry was employed. […] AMPase activity was determined by measuring AMP-specific brown staining intensities from the images using QuPath v.0.3.0 software. […] The average DAB intensity levels were measured as described earlier.^[39^] […]

Broadly, the Ki is the dissociation constant of the complex between target and ligand, obtained from inhibition or displacement. A low value points to tighter binding.

Human serum albumin (HSA), sequence (P02768 25-609): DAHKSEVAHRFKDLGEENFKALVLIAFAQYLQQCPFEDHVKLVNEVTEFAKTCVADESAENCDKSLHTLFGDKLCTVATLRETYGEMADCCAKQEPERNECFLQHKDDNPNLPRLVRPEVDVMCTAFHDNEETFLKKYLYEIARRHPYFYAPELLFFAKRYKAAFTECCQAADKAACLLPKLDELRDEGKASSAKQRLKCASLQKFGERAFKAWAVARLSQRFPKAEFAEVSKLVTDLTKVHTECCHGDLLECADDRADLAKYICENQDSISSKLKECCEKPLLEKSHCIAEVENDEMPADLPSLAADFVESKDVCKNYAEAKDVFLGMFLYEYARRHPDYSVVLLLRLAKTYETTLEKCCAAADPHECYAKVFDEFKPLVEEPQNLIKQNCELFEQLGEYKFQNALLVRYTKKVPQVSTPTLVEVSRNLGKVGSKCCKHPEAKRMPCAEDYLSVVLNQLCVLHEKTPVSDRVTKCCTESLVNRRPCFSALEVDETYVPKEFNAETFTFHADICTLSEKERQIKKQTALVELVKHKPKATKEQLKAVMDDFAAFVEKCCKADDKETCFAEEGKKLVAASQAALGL

On to `CCCN(Cc1ccc(-c2cn(CCF)nn2)cc1)c1nc(Cl)nc2c1ncn2[C@@H]1O[C@H](COP(=O)(O)CP(=O)(O)O)[C@@H](O)[C@H]1O` [compound 1], for which, in data set [1], the Ki stood at 47.8 nM. The fraction unbound in data set [2] was less than 0.01. Moreover, the “Reduction of CD73/AMPase activity in the breast TME” value in data set [3] was 60%–70.
